Test results taken from US20240307424A1, “COMPOSITION CAPABLE OF PROMOTING HAIR GROWTH, DRUG CAPABLE OF PROMOTING HAIR GROWTH, AND APPLICATION THEREOF” (GUANGXI XINHAI PHARMACEUTICAL TECHNOLOGY CO., LTD., priority 2022, published 2024).

Assays:
[1] = tested on: hair follicles in the skin tissue of the hair removal area on the back of mice; assay: Number of hair follicles in skin tissue of the hair removal area (HE staining); type: in vivo, KM mice; settings: twice a day, 2 weeks, compared with the model group
Description: After the mice are sacrificed, the skin tissue of the back is fixed, is embedded with paraffin to obtain a paraffin-embedded section, is subjected to HE staining, and is counted the number of hair follicles to evaluate the effect of hair growth promotion.

[2] = tested on: hair removal area on the back of mice; assay: Hair growth on the back of mice after hair removal (photos, hair growth speed score); type: in vivo, KM mice; settings: twice a day, 2 weeks; for hair growth speed (score 0-3) of the hair removal area: high dose 2 mg/mL, compared with the model group
Description: The experimental animals are purchased from National Institutes for Food and Drug Control with a production license No. of SCXK2017 (Jing)-0005, KM mice, male, 18-20 g. SPF grade.
Except for a normal control group, the back of all the mice in the other groups are subjected to hair removal.
The experimental animals are purchased from National Institutes for Food and Drug Control with the production license No. of SCXK2017 (Jing)-0005, KM mice, male, 18-20 g, spf grade.
Except for the normal control group, the back of all the mice in the other groups are subjected to hair removal.

[3] = Weight of mice after administration for 2 weeks
Description: Animal grouping: a blank group, a model group, a Vaseline group, a pulchinenoside B4-low dose group, a pulchinenoside B4-medium dose group, a pulchinenoside B4-high dose group, a positive drug of minoxidil liniment group, 10 mice per group, pulchinenoside B4 and minoxidil liniment in each group are dissolved with Vaseline. The mice in the Vaseline group are administered Vaseline, the low dose, and medium dose and high dose of pulchinenoside B4 are 0.5, 1, and 2 mg/mL, respectively. The mice are administered twice a day, after 2 weeks of continuous administration, the skin tissue of a hair removal area on the back of the mice in each group is taken, is fixed and is subjected to HE staining, and the number of hair follicles is counted under a microscope.
Animal grouping: a blank group, a model group, a Vaseline group, a pulchinenoside B5-low dose group, a pulchinenoside B5-medium dose group, a pulchinenoside B5-high dose group, a positive drug of minoxidil liniment group, 10 mice per group, pulchinenoside B5 and minoxidil liniment in each group are dissolved with Vaseline. […] The mice are administered twice a day, after 2 weeks of continuous administration, the skin tissue of a hair removal area on the back of the mice in each group is obtained, is fixed and is subjected to HE staining, and the number of hair follicles is counted under a microscope.

[4] = medium dose 1 mg/mL in Vaseline

C=C(C)[C@@H]1CCC2(C(=O)OC3OC(COC4O[C@H](CO)C(O[C@@H]5O[C@@H](C)[C@H](O)[C@@H](O)[C@H]5O)[C@H](O)[C@H]4O)[C@@H](O)[C@H](O)[C@H]3O)CC[C@]3(C)[C@H](CC[C@@H]4[C@@]5(C)CC[C@H](O[C@@H]6OC[C@H](O)[C@H](O)[C@H]6O[C@@H]6O[C@@H](C)[C@H](O)[C@@H](O)[C@H]6O)[C@@](C)(CO)C5CC[C@]43C)[C@@H]12 (stereo partly drawn) [pulchinenoside B4]
number of hair follicles in the skin tissue of the hair removal area ([1]; high dose 2 mg/mL): significantly increase | number of hair follicles in the skin tissue of the hair removal area ([1]; low dose 0.5 mg/mL): significantly increase | number of hair follicles in the skin tissue of the hair removal area ([1]; medium dose 1 mg/mL): significantly increase | hair growth in the hair removal area on the back of mice (photos) ([2]; high dose 2 mg/mL in Vaseline): can promote hair growth | hair growth speed (score 0-3) of the hair removal area [2]: significantly increased | hair growth in the hair removal area on the back of mice (photos) ([2]; low dose 0.5 mg/mL in Vaseline): can promote hair growth | hair growth in the hair removal area on the back of mice (photos) [2, 4]: can promote hair growth

C[C@@H]1O[C@@H](OC2[C@@H](CO)OC(OCC3OC(OC(=O)C45CCC(C)(C)C[C@@H]4[C@H]4CC[C@@H]6[C@@]7(C)CC[C@H](O[C@@H]8OC[C@H](O)[C@H](O)[C@H]8O[C@@H]8O[C@@H](C)[C@H](O)[C@@H](O)[C@H]8O)C(C)(CO)[C@@H]7CC[C@@]6(C)[C@]4(C)CC5)[C@H](O)[C@@H](O)[C@@H]3O)[C@H](O)[C@H]2O)[C@H](O)[C@H](O)[C@H]1O (stereo partly drawn) [pulchinenoside B5]
effect on the weight of mice [3]: no significant effect | number of hair follicles in the skin tissue of the hair removal area ([1]; high dose 2 mg/mL): significantly increase | number of hair follicles in the skin tissue of the hair removal area ([1]; low dose 0.5 mg/mL): significantly increase | number of hair follicles in the skin tissue of the hair removal area ([1]; medium dose 1 mg/mL): significantly increase | hair growth in the hair removal area on the back of mice (photos) ([2]; high dose 2 mg/mL in Vaseline): can promote hair growth | hair growth speed (score 0-3) of the hair removal area [2]: significantly increased | hair growth in the hair removal area on the back of mice (photos) ([2]; low dose 0.5 mg/mL in Vaseline): can promote hair growth | hair growth in the hair removal area on the back of mice (photos) [2, 4]: can promote hair growth
